Patent publication KR20140065554A, “안토시아닌을 포함하는 항염용 조성물” (대한민국(농촌진흥청장), priority 2012, dated 2014)

Legend:
Format in all cases: cell-based
[1] = tested on: LPS-induced NO production in RAW 264.7 (RAW 264.7에서 LPS로 유도된 NO 생성); assay: Inhibition of LPS-induced NO production in RAW 264.7; details: p<0.05
[2] = tested on: LPS-induced NO production (LPS로 유도되는 NO의 생성); assay: Anti-inflammatory effect assay of peak 2 anthocyanin: inhibition of LPS-induced NO production; details: p<0.05
[3] = tested on: HepG2; assay: Protective effect against hydrogen peroxide (H2O2, 0.9 mM)-induced oxidative stress in HepG2; details: HepG2, H2O2 0.9mM, p<0.05

## Peonidin 3-p-hydroxybenzoyl sophoroside-5-glucoside [Peak 4]
[1]
  inhibition of LPS-induced NO production: 유의적으로 저해하였다

## COc1cc(-c2[o+]c3cc(O)cc(O[C@@H]4O[C@H](CO)[C@@H](O)[C@H](O)[C@H]4O)c3cc2O[C@@H]2O[C@H](CO)[C@@H](O)[C@H](O)[C@H]2O[C@@H]2O[C@H](CO)[C@@H](O)[C@H](O)[C@H]2O)ccc1O (single isomer, unassigned) [Peak 2, Peonidin-3-sophoroside-5-glucoside]
[1]
  inhibition of LPS-induced NO production: 유의적으로 저해하였다
[2]; 1uM
  inhibition at 1 µM: 8%
[2]; 10uM
  inhibition at 10 µM: 15%

## COc1cc(-c2[o+]c3cc(O)cc(O[C@@H]4O[C@H](CO)[C@@H](O)[C@H](O)[C@H]4O)c3cc2O[C@@H]2O[C@H](COC(=O)/C=C/c3ccc(O)c(O)c3)[C@@H](O)[C@H](O)[C@H]2O[C@@H]2O[C@H](COC(=O)/C=C/c3ccc(O)c(O)c3)[C@@H](O)[C@H](O)[C@H]2O)ccc1O (single isomer, unassigned) [Peak 12, Peonidin 3-(6", 6"'-dicaffeoyl sophoroside)-5-glucoside]
[3]
  cell protective effect against H2O2-induced oxidative stress: 유의적인 세포 보호 효과를 보였다
